Among the data in ChEMBL document CHEMBL2385072, “Development of oleanane-type triterpenes as a new class of HCV entry inhibitors” (J Med Chem, 2013) are inhibition values, retold here.

Each structure is given as a SMILES string.

Common to all, as to conditions: HEK-293T
Experiment [1] relates to Hepatitis C virus. The experiment in a line: Antiviral activity against pseudo HCV infected in human 293T cells assessed as inhibition of HCV pseudo particles entry at 5 uM after 72 hrs by luciferase reporter gene assay. The format is functional, Hepacivirus hominis.
Experiment [2] has as its system Hepatitis C virus. The experiment in a line: Antiviral activity against pseudo HCV infected in human 293T cells assessed as inhibition of HCV pseudo particles entry at 1 uM after 72 hrs by luciferase reporter gene assay. The format is functional, Hepacivirus hominis. Background: Reporter assays use an easily measured gene product as a stand-in for the process of interest.

The subject of experiment [3] is Vesicular stomatitis virus. The experiment in a line: Antiviral activity against pseudo VSV infected in human 293T cells assessed as inhibition of vesicular stromatis G protein pseudo particles entry at 5 uM after 72 hrs by luciferase reporter gene assay. The format is functional.
Experiment [4] has as its system Vesicular stomatitis virus. The experiment in a line: Antiviral activity against pseudo VSV infected in human 293T cells assessed as inhibition of vesicular stromatis G protein pseudo particles entry at 1 uM after 72 hrs by luciferase reporter gene assay. The class given is functional.

In the case of `C[C@H]1O[C@@H](n2cc(CNC(=O)[C@]34CCC(C)(C)C[C@H]3C3=CC[C@@H]5[C@@]6(C)CC[C@H](O)C(C)(C)[C@@H]6CC[C@@]5(C)[C@]3(C)C[C@H]4O)nn2)[C@@H](O)[C@@H](O)[C@@H]1O`, the inhibition at 5 µM turned out to be 67% with Hepatitis C virus [1] and 13.9% in experiment [3]. For the same compound, the inhibition at 1 µM was 32% in the experiment on Hepatitis C virus [2] and 7.7% in experiment [4].

`CC(=O)O[C@H]1[C@H](OC(C)=O)[C@H](OC(C)=O)CO[C@H]1n1cc(CNC(=O)[C@]23CCC(C)(C)C[C@H]2C2=CC[C@@H]4[C@@]5(C)CC[C@H](O)C(C)(C)[C@@H]5CC[C@@]4(C)[C@]2(C)C[C@H]3O)nn1`: the inhibition at 5 µM was found to be 72.6% in the experiment with Hepatitis C virus [1] and 20.9% in experiment [3]. The inhibition at 1 µM in the experiment on Hepatitis C virus [2] was 26.3%; in experiment [4] it was -6.6%.

As for `COC(=O)[C@]12CCC(C)(C)C[C@H]1C1=CC[C@@H]3[C@@]4(C)CC[C@H](O[Si](C)(C)C(C)(C)C)C(C)(C)[C@@H]4CC[C@@]3(C)[C@]1(C)CC2=O`, the inhibition at 5 µM with Hepatitis C virus [1] was -3.8%; in experiment [3], 40.2%. For the same compound, the inhibition at 1 µM in the experiment with Hepatitis C virus [2] is 11.5%; in experiment [4], 45.3%.

Regarding `CC1(C)CC[C@]2(C(=O)O[C@@H]3OC[C@@H](O)[C@@H](O)[C@@H]3O)[C@H](O)C[C@]3(C)C(=CC[C@@H]4[C@@]5(C)CC[C@H](O)C(C)(C)[C@@H]5CC[C@]43C)[C@@H]2C1`, the inhibition at 5 µM with Hepatitis C virus [1] stood at 54.6%; in experiment [3], 5.8%. In addition, the inhibition at 1 µM with Hepatitis C virus [2] is 34.7%; in experiment [4], 15.6%.

On to `COC(=O)[C@]12CCC(C)(C)C[C@H]1C1=CC[C@@H]3[C@@]4(C)CCC(=O)C(C)(C)[C@@H]4CC[C@@]3(C)[C@]1(C)C[C@H]2O`, for which the inhibition at 5 µM is 64.7% in the experiment with Hepatitis C virus [1] and 55.4% in experiment [3]. Besides, the inhibition at 1 µM in the experiment on Hepatitis C virus [2] was found to be 3.5%; in experiment [4], 21.5%.

Turning to `CC1(C)CC[C@]2(C(=O)NCc3cn(CCNC(=O)CCCC[C@@H]4SC[C@@H]5NC(=O)N[C@@H]54)nn3)[C@H](O)C[C@]3(C)C(=CC[C@@H]4[C@@]5(C)CC[C@H](O)C(C)(C)[C@@H]5CC[C@]43C)[C@@H]2C1`, the values for the inhibition at 5 µM (with Hepatitis C virus [1]; in experiment [3]) were 76.7% and 12%, respectively. The inhibition at 1 µM in the experiment on Hepatitis C virus [2] stood at 34.2%; in experiment [4] it was 10.3%.

With `CC1(C)CC[C@]2(C(=O)O[C@@H]3O[C@H](CO)[C@H](O)[C@H](O)[C@H]3O)[C@H](O)C[C@]3(C)C(=CC[C@@H]4[C@@]5(C)CC[C@H](O)C(C)(C)[C@@H]5CC[C@]43C)[C@@H]2C1`, the inhibition at 5 µM with Hepatitis C virus [1] was determined as 61.6%; in experiment [3] it was 14.6%. Moreover, the inhibition at 1 µM was 40.9% with Hepatitis C virus [2] and 8.1% in experiment [4].

In the case of `CC(=O)OC[C@H]1O[C@@H](OC(=O)[C@]23CCC(C)(C)C[C@H]2C2=CC[C@@H]4[C@@]5(C)CC[C@H](O)C(C)(C)[C@@H]5CC[C@@]4(C)[C@]2(C)C[C@H]3O)[C@H](OC(C)=O)[C@@H](OC(C)=O)[C@@H]1OC(C)=O`, the inhibition at 5 µM with Hepatitis C virus [1] is 78.3%; in experiment [3] it was 13.9%. The inhibition at 1 µM in the experiment with Hepatitis C virus [2] was found to be 35.7%; in experiment [4], 3.7%.

Consider `CC(=O)OC[C@H]1O[C@@H](n2cc(CNC(=O)[C@]34CCC(C)(C)C[C@H]3C3=CC[C@@H]5[C@@]6(C)CC[C@H](O)C(C)(C)[C@@H]6CC[C@@]5(C)[C@]3(C)C[C@H]4O)nn2)[C@H](OC(C)=O)[C@@H](OC(C)=O)[C@@H]1O[C@H]1O[C@H](COC(C)=O)[C@@H](OC(C)=O)[C@H](OC(C)=O)[C@H]1OC(C)=O`, for which the inhibition at 5 µM in the experiment with Hepatitis C virus [1] came to 79.7%; in experiment [3], 28.9%. In addition, the inhibition at 1 µM worked out at 56.4% in the experiment with Hepatitis C virus [2] and 13.2% in experiment [4].

`COC(=O)[C@]12CCC(C)(C)C[C@H]1C1=CC[C@@H]3[C@@]4(C)CC[C@H](O[Si](C)(C)C(C)(C)C)C(C)(C)[C@@H]4CC[C@@]3(C)[C@]1(C)C[C@H]2O`: the inhibition at 5 µM in the experiment on Hepatitis C virus [1] came out at 27.8%; in experiment [3] it was 37.4%. The values for the inhibition at 1 µM (in the experiment on Hepatitis C virus [2]; in experiment [4]) were 44.3% and 27.4%, respectively.

On to `CC1(C)CC[C@]2(C(=O)O[C@@H]3O[C@H](CO)[C@@H](O[C@@H]4O[C@H](CO)[C@H](O)[C@H](O)[C@H]4O)[C@H](O)[C@H]3O)[C@H](O)C[C@]3(C)C(=CC[C@@H]4[C@@]5(C)CC[C@H](O)C(C)(C)[C@@H]5CC[C@]43C)[C@@H]2C1`, for which the inhibition at 5 µM in the experiment with Hepatitis C virus [1] is 40.1%; in experiment [3], 16.7%. Also, the values for the inhibition at 1 µM (in the experiment on Hepatitis C virus [2]; in experiment [4]) were 32.7% and 22.6%, respectively.

As to `CC1(C)CC[C@]2(C(=O)O)[C@H](O)C[C@]3(C)C(=CC[C@@H]4[C@@]5(C)CC[C@H](OS(=O)(=O)O)C(C)(C)[C@@H]5CC[C@]43C)[C@@H]2C1`, the inhibition at 5 µM with Hepatitis C virus [1] was determined as 55.2%; in experiment [3], 40.4%. Also, the figures for the inhibition at 1 µM (with Hepatitis C virus [2]; in experiment [4]) were 33.4% and 39.1%, respectively.

For the compound `COC(=O)[C@]12CCC(C)(C)C[C@H]1[C@H]1C(=O)C[C@@H]3[C@@]4(C)CC[C@H](O)C(C)(C)[C@@H]4CC[C@@]3(C)[C@]1(C)C[C@H]2O`, the figures for the inhibition at 5 µM (in the experiment on Hepatitis C virus [1]; in experiment [3]) were -8.7% and 46.1%, respectively. Further, the inhibition at 1 µM stood at 4.9% in the experiment on Hepatitis C virus [2] and 42.7% in experiment [4].

Turning to `CC(=O)OC[C@H]1O[C@@H](n2cc(CNC(=O)[C@]34CCC(C)(C)C[C@H]3C3=CC[C@@H]5[C@@]6(C)CC[C@H](O)C(C)(C)[C@@H]6CC[C@@]5(C)[C@]3(C)C[C@H]4O)nn2)[C@@H](OC(C)=O)[C@@H](OC(C)=O)[C@@H]1OC(C)=O`, the inhibition at 5 µM in the experiment with Hepatitis C virus [1] was found to be 81.5%; in experiment [3] it was 14.7%. For the same compound, the inhibition at 1 µM in the experiment on Hepatitis C virus [2] was 21.8%; in experiment [4] it was -5.3%.

Regarding `CC1(C)CC[C@]2(C(=O)NCCCNC(=O)[C@]34CCC(C)(C)C[C@H]3C3=CC[C@@H]5[C@@]6(C)CC[C@H](O)C(C)(C)[C@@H]6CC[C@@]5(C)[C@]3(C)C[C@H]4O)[C@H](O)C[C@]3(C)C(=CC[C@@H]4[C@@]5(C)CC[C@H](O)C(C)(C)[C@@H]5CC[C@]43C)[C@@H]2C1`, the inhibition at 5 µM is 58.2% in the experiment on Hepatitis C virus [1] and 27.6% in experiment [3]. The values for the inhibition at 1 µM (with Hepatitis C virus [2]; in experiment [4]) were 44.6% and 18.7%, respectively.

For the compound `CC(=O)OC[C@H]1O[C@@H](n2cc(CNC(=O)[C@]34CCC(C)(C)C[C@H]3C3=CC[C@@H]5[C@@]6(C)CC[C@H](O)C(C)(C)[C@@H]6CC[C@@]5(C)[C@]3(C)C[C@H]4O)nn2)[C@H](OC(C)=O)[C@@H](OC(C)=O)[C@H]1OC(C)=O`, the inhibition at 5 µM with Hepatitis C virus [1] amounted to 66.5%; in experiment [3], 30.6%. The values for the inhibition at 1 µM (in the experiment with Hepatitis C virus [2]; in experiment [4]) were 20.4% and 24.3%, respectively.

As to `CC1(C)CC[C@]2(C(=O)NCc3cn([C@@H]4O[C@H](CO)[C@@H](O[C@@H]5O[C@H](CO)[C@H](O)[C@H](O)[C@H]5O)[C@H](O)[C@H]4O)nn3)[C@H](O)C[C@]3(C)C(=CC[C@@H]4[C@@]5(C)CC[C@H](O)C(C)(C)[C@@H]5CC[C@]43C)[C@@H]2C1`, the values for the inhibition at 5 µM (with Hepatitis C virus [1]; in experiment [3]) were 14.6% and 47.3%, respectively. Besides, the inhibition at 1 µM in the experiment with Hepatitis C virus [2] is 23.1%; in experiment [4] it was 47%.

`COC(=O)[C@@]12C=C[C@]3(C)C(=CC[C@@H]4[C@@]5(C)CC[C@H](O)C(C)(C)[C@@H]5CC[C@]43C)[C@@H]1CC(C)(C)CC2`: the figures for the inhibition at 5 µM (in the experiment on Hepatitis C virus [1]; in experiment [3]) were 27.9% and 18.8%, respectively. The inhibition at 1 µM stood at 12.3% with Hepatitis C virus [2] and 15.2% in experiment [4].

For the compound `CC1(C)CC[C@]2(C(=O)NCc3cn([C@@H]4O[C@H](CO)[C@@H](O[C@@H]5O[C@H](CO)[C@@H](O)[C@H](O)[C@H]5O)[C@H](O)[C@H]4O)nn3)[C@H](O)C[C@]3(C)C(=CC[C@@H]4[C@@]5(C)CC[C@H](O)C(C)(C)[C@@H]5CC[C@]43C)[C@@H]2C1`, the inhibition at 5 µM in the experiment on Hepatitis C virus [1] came out at 11.8%; in experiment [3], 50.5%. Further, the inhibition at 1 µM with Hepatitis C virus [2] was 15.2%; in experiment [4], 26.6%.

`CC(=O)O[C@@H]1[C@@H](OC(C)=O)[C@H](OC(=O)[C@]23CCC(C)(C)C[C@H]2C2=CC[C@@H]4[C@@]5(C)CC[C@H](O)C(C)(C)[C@@H]5CC[C@@]4(C)[C@]2(C)C[C@H]3O)OC[C@H]1OC(C)=O`: the inhibition at 5 µM stood at 70.7% in the experiment on Hepatitis C virus [1] and 21.7% in experiment [3]. The inhibition at 1 µM with Hepatitis C virus [2] is 17.5%; in experiment [4] it was 20.1%.

On to `CC1(C)CC[C@]2(C(=O)NCc3cn([C@@H]4OC[C@@H](O)[C@H](O)[C@H]4O)nn3)[C@H](O)C[C@]3(C)C(=CC[C@@H]4[C@@]5(C)CC[C@H](O)C(C)(C)[C@@H]5CC[C@]43C)[C@@H]2C1`, for which the inhibition at 5 µM in the experiment with Hepatitis C virus [1] is 27.8%; in experiment [3], 27%. Moreover, the results for the inhibition at 1 µM (with Hepatitis C virus [2]; in experiment [4]) were 14.8% and 34.4%, respectively.

`CC1(C)CC[C@]2(C(=O)O)[C@H](O)C[C@]3(C)C(=CC[C@@H]4[C@@]5(C)[C@H](O)C[C@H](O)C(C)(C)[C@@H]5CC[C@]43C)[C@@H]2C1`: the inhibition at 5 µM with Hepatitis C virus [1] was determined as 35.2%; in experiment [3], 11.8%. Also, the inhibition at 1 µM in the experiment with Hepatitis C virus [2] is 14.3%; in experiment [4], 7.9%.

Consider `COC(=O)[C@]12CCC(C)(C)C[C@H]1C1=CC[C@@H]3[C@@]4(C)CC[C@H](OC)C(C)(C)[C@@H]4CC[C@@]3(C)[C@]1(C)C[C@H]2O`, for which the figures for the inhibition at 1 µM (in the experiment with Hepatitis C virus [2]; in experiment [4]) were -14% and 9.9%, respectively. The inhibition at 5 µM in experiment [3] was determined as 30.1%.

Consider `COC(=O)[C@@]12C=C[C@]3(C)C(=CC[C@@H]4[C@@]5(C)CC=CC(C)(C)[C@@H]5CC[C@]43C)[C@@H]1CC(C)(C)CC2`, for which the inhibition at 5 µM is 14% in the experiment on Hepatitis C virus [1] and 33.9% in experiment [3]. For the same compound, the inhibition at 1 µM amounted to 35.8% in the experiment with Hepatitis C virus [2] and 20.9% in experiment [4].

By inhibition is commonly meant the drop in the measured response relative to a control, in per cent.
